According to US9006216B2, “Biocidal aldehyde composition for oil and gas extraction” (priority 2009, dated 2015):

Tests used:
[1] = system: sulfur reducing bacteria (SRB); assay: Efficacy in oil/gas fields on sulfur reducing bacteria; type: cell-based
Excerpt: (§1) As such there is actually a slight increase in planktonic microbes which are more susceptible to biocide/TTPC effects. Individual biocides affect the physiology of the cell quite differently. […] This is an example of enhanced quantum complementarity. The importance of the environmental parameter cannot be underestimated based upon the foregoing results. TTPC has a similar margin of exposure as the quats for oil field imputability with friction reducers for killing of aerobic organisms. […] The minimum inhibitory concentration (MIC) for the TTPC usage is 50-500 ppm. Therefore it is safe regarding corrosiveness, an important facet in well treatment. […] The faster cidal action is due basically to the chemistry difference between amine quats and phosphonium salts. The ammonium quats have longer alkyl chains. Instead of amine the difference is a phosphonium ion but also importantly is the alkyl chain length. It has been determined that there is an optimal length for anti-bacterial effectiveness. It was dependent upon chain length and attachment moieties. […] Usually the longer chain was better but not in these cases. […] TTPC did. There are great differences between Gram + and Gram − bacteria in their cell walls. […] The Gram − wall is complicated. It has in addition to the wall of G+ an outer membrane of lipopolysaccharides and phospholipids that protect the cell.

biofilm = assay: Biofilm removability; conditions: secondary oil and gas recovery
Excerpt: as §1

[2] = system: acid-producing bacteria (APB); assay: Effective kill time of acid-producing bacteria; type: cell-based
Experimental: When TTPC was added to the core Glutaraldehyde or OPA as a substitute for dual chain quaternary ammonium the effective kill time was twice as fast (2×) based upon log reduction. Similarly, the TTPC reduced the effective kill time of acid-producing bacteria (APB) by almost 50%. Although the kill speed of TTPC alone was 20% slower than the glut/quat formula of copending U.S. patent application Ser. No. 12/584,650, when TTPC is combined with glutaraldehyde as a substitute for dual chain quaternary ammonium the kill time increased to four times 4× faster, evidencing the synergism of the present combination.

aerobic organisms = assay: Killing of aerobic organisms in oil frac water (5 log reduction); type: cell-based; conditions: based upon a 5 log reduction in oil frac water
Excerpt: as §1

[3] = 20-22 degrees C; high level disinfectant; cited from earlier work
mycobacterial strains = conditions: cited from earlier work
Pseudomonas aeruginosa [4] = conditions: cited from earlier work
Pseudomonas aeruginosa [5] = assay: Chlorine dioxide and TTPC versus Pseudomonas aeruginosa, log reduction; type: cell-based; conditions: ClO2 of 10 ppm alone; 10^5 ml; 30 min exposure
Experimental: A test with chlorine dioxide (ClO2) and TTPC versus Pseudomonas aeruginosa was performed at 10^5 ml with ClO2 of 10 ppm. This alone gave a 1 log reduction in 30 min exposure. TTPC alone at 50 ppm gave a 2 log reduction. The combination of ClO2 and TTPC of 5 ppm and 10 ppm gave a 5 log reduction in 30 min.

Structure (SMILES): CCCCCCCCCCCCCC[P+](CCCC)(CCCC)CCCC.[Cl-] [TTPC, tributyl tetradecyl phosphonium chloride]
- efficacy on sulfur reducing bacteria (SRB) [1]: almost equally effective
- biofilm removability compared to quaternary ammonium (biofilm): superior biofilm removability
- reduction of effective kill time of acid-producing bacteria (APB) [2]: ~50%
- effectiveness relative to the original glut/quat formula (aerobic organisms): twice as effective

Structure (SMILES): O=Cc1ccccc1C=O [OPA, ortho-phthalaldehyde]
- disinfection time [3]: twelve
- bactericidal activity against mycobacterial strains (mycobacterial strains): limited activity
- bactericidal activity against Pseudomonas aeruginosa (Pseudomonas aeruginosa [4]): good

Structure (SMILES): [O][Cl+][O-] [ClO2, chlorine dioxide]
- log reduction (Pseudomonas aeruginosa [5]): 1 log
